Measured values published in ChEMBL document CHEMBL5500344, “Design, synthesis and biological evaluation of matrine contains benzimidazole derivatives as dual TOPOI and PARP inhibitors for cancer therapy” (Eur J Med Chem, 2024).

Key:
A549 = experiment: Antiproliferative activity against human A549 cells assessed as inhibition of cell growth incubated for 48 hrs by MTT assay; format: functional, cell-based; details: A549, 48 h
HeLa = experiment: Antiproliferative activity against human HeLa cells assessed as inhibition of cell growth incubated for 48 hrs by MTT assay; format: functional, cell-based
HepG2 = experiment: Antiproliferative activity against human HepG2 cells assessed as inhibition of cell growth incubated for 48 hrs by MTT assay; format: functional, cell-based; details: HepG2, 48 h
[1] = Acute toxicity in BALB/c mouse xenografted with human HGC-27 cells assessed as venous congestion in spleen at 40 mg/kg,ip administrated every other day for 17 days by hematoxylin and eosin staining method; format: organism-based; details: in vivo, 408 h, time 17 day
[2] = Acute toxicity in BALB/c mouse xenografted with human HGC-27 cells assessed as increase in mucin secretion of lung at 40 mg/kg,ip administrated every other day for 17 days by hematoxylin and eosin staining method; format: organism-based; details: in vivo, 408 h, time 17 day
[3] = Acute toxicity in BALB/c mouse xenografted with human HGC-27 cells assessed as increase in connective tissue proliferation of kidney at 40 mg/kg,ip administrated every other day for 17 days by hematoxylin and eosin staining method; format: organism-based; details: in vivo, 408 h, time 17 day
[4] = Acute toxicity in BALB/c mouse xenografted with human HGC-27 cells assessed as change in body weight at 40 mg/kg,ip administrated every other day for 17 days; format: organism-based; details: in vivo, 408 h, time 17 day
HGC-27 [5] = experiment: Antitumor activity against human HGC-27 cells xenografted in BALB/c mouse assessed as tumor growth inhibition at 40 mg/kg,ip administrated every other day for 17 days relative to control; format: functional; details: HGC-27, 408 h, time 17 day, read-out: TGI
HGC-27 [6] = experiment: Antiproliferative activity against human HGC-27 cells assessed as inhibition of cell growth incubated for 48 hrs by MTT assay; format: functional, cell-based; details: HGC-27, 48 h
HGC-27 [7] = experiment: Induction of cell cycle arrest in human HGC-27 cells assessed as accumulation of cells at G0/G1 phase at 1.25 uM incubated for 48 hrs by flow cytometry relative to control; format: functional
HGC-27 [8] = experiment: Induction of apoptosis in human HGC-27 cells assessed as viable cells at 1.25 uM incubated for 24 hrs by annexin V-FITC/PI satining based flow cytometry (reference value: 95.3 %); format: functional; details: read-out: Activity
HGC-27 [9] = experiment: Induction of apoptosis in human HGC-27 cells assessed as viable cells at 2.5 uM incubated for 24 hrs by annexin V-FITC/PI satining based flow cytometry (reference value: 95.3 %); format: functional; details: read-out: Activity
HGC-27 [10] = experiment: Induction of cell cycle arrest in human HGC-27 cells assessed as accumulation of cells at G0/G1 phase at 5 uM incubated for 48 hrs by flow cytometry relative to control; format: functional
HGC-27 [11] = experiment: Induction of apoptosis in human HGC-27 cells at 5 uM incubated for 24 hrs by annexin V-FITC/PI satining based flow cytometry relative to control; format: functional
HGC-27 [12] = experiment: Induction of apoptosis in human HGC-27 cells assessed as necrotic cells at 5 uM incubated for 24 hrs by annexin V-FITC/PI satining based flow cytometry (reference value: 0.13 %); format: functional
HGC-27 [13] = experiment: Induction of apoptosis in human HGC-27 cells assessed as early apoptotic cells at 2.5 uM incubated for 24 hrs by annexin V-FITC/PI satining based flow cytometry (reference value: 4.2 %); format: functional
HGC-27 [14] = experiment: Inhibition of cell migration in human HGC-27 cells incubated upto 72 hrs by scratch wound healing based microscopic analysis; format: functional
HGC-27 [15] = experiment: Induction of apoptosis in human HGC-27 cells assessed as early apoptotic cells at 5 uM incubated for 24 hrs by annexin V-FITC/PI satining based flow cytometry (reference value: 4.2 %); format: functional
HGC-27 [16] = experiment: Induction of apoptosis in human HGC-27 cells at 2.5 uM incubated for 24 hrs by annexin V-FITC/PI satining based flow cytometry relative to control; format: functional
HGC-27 [17] = experiment: Inhibition of colony formation in human HGC-27 cells incubated for 48 hrs by crystal violet staining based microscopic analysis; format: functional, cell-based
HGC-27 [18] = experiment: Induction of apoptosis in human HGC-27 cells assessed as necrotic cells at 2.5 uM incubated for 24 hrs by annexin V-FITC/PI satining based flow cytometry (reference value: 0.13 %); format: functional
HGC-27 [19] = experiment: Induction of apoptosis in human HGC-27 cells assessed as upregulation of caspase-3 expression incubated for 48 hrs by Western blotting analysis; format: functional, cell-based
HGC-27 [20] = experiment: Induction of cell cycle arrest in human HGC-27 cells assessed as accumulation of cells at G0/G1 phase at 2.5 uM incubated for 48 hrs by flow cytometry relative to control; format: functional
[21] = molecular target: Poly [ADP-ribose] polymerase 1 (Homo sapiens, UniProt P09874); experiment: Inhibition of PARP-1 (unknown origin) incubated for 70 mins by HT universal chemiluminescent assay
Poly [ADP-ribose] polymerase 1, sequence (P09874 whole entry): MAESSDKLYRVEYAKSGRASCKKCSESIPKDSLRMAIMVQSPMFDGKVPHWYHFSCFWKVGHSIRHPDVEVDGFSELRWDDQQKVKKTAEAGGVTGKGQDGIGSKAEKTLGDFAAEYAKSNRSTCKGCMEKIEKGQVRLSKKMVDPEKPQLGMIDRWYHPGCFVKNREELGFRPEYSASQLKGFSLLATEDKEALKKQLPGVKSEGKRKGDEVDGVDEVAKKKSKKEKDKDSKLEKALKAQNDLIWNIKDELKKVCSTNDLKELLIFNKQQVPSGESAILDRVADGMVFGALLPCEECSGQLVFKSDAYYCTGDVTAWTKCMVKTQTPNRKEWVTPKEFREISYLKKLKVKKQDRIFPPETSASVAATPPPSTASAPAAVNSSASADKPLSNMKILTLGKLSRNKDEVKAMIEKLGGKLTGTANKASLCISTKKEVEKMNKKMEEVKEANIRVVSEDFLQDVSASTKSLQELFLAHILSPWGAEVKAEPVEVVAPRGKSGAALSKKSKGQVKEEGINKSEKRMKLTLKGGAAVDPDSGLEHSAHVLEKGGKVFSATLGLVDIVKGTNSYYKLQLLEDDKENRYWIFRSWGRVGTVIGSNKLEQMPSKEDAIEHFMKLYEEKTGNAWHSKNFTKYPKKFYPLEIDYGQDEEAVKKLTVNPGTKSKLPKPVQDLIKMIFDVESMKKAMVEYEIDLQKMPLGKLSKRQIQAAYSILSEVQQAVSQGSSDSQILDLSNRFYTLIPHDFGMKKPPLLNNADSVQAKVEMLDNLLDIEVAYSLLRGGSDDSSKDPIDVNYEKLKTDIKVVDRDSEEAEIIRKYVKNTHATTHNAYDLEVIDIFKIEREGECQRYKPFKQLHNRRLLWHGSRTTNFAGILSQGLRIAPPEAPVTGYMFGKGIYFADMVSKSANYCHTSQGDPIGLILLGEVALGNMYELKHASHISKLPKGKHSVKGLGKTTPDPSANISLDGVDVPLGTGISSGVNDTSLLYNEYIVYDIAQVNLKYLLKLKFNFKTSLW

HGC-27 [22] = experiment: Induction of apoptosis in human HGC-27 cells assessed as viable cells at 5 uM incubated for 24 hrs by annexin V-FITC/PI satining based flow cytometry (reference value: 95.3 %); format: functional; details: read-out: Activity
HGC-27 [23] = experiment: Induction of apoptosis in human HGC-27 cells at 1.25 uM incubated for 24 hrs by annexin V-FITC/PI satining based flow cytometry relative to control; format: functional
HGC-27 [24] = experiment: Induction of apoptosis in human HGC-27 cells assessed as upregulation of Bax expression incubated for 48 hrs by Western blotting analysis; format: functional, cell-based
HGC-27 [25] = experiment: Induction of apoptosis in human HGC-27 cells assessed as necrotic cells at 1.25 uM incubated for 24 hrs by annexin V-FITC/PI satining based flow cytometry (reference value: 0.13 %); format: functional
HGC-27 [26] = experiment: Induction of apoptosis in human HGC-27 cells assessed as upregulation of cleaved PARP expression incubated for 48 hrs by Western blotting analysis; format: functional, cell-based
HGC-27 [27] = experiment: Induction of apoptosis in human HGC-27 cells assessed as late apoptotic cells at 1.25 uM incubated for 24 hrs by annexin V-FITC/PI satining based flow cytometry (reference value: 0.32 %); format: functional
HGC-27 [28] = experiment: Induction of apoptosis in human HGC-27 cells assessed as early apoptotic cells at 1.25 uM incubated for 24 hrs by annexin V-FITC/PI satining based flow cytometry (reference value: 4.2 %); format: functional
[29] = molecular target: T1, DNA topoisomerase 1 (Homo sapiens) (UniProt P11387); experiment: Inhibition of human topoisomerase 1 assessed as relaxation of supercoiled pBR322 plasmid DNA incubated for 10 to 15 mins by EtBr staining based agarose gel electrophoresis method; details: time 10-15 min
T1 sequence (whole entry): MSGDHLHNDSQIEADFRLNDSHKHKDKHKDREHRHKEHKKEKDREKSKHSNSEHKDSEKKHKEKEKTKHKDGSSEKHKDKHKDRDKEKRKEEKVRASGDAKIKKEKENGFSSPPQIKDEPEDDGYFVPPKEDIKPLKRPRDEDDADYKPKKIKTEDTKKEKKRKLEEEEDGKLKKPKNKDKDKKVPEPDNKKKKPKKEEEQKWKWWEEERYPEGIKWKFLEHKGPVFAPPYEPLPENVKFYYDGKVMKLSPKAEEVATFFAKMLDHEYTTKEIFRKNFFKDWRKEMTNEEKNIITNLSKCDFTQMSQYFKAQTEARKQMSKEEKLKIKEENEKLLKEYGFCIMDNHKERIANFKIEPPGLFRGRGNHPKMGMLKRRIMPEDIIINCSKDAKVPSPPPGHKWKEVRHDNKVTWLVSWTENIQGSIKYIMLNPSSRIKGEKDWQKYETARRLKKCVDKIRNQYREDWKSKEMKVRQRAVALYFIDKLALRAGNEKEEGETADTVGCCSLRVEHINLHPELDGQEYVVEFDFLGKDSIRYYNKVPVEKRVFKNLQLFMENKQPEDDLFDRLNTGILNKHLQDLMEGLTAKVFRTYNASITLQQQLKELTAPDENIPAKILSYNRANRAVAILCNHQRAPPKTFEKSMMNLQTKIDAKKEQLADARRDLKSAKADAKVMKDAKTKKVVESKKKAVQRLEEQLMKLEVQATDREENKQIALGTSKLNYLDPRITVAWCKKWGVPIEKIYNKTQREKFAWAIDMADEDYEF

HGC-27 [30] = experiment: Induction of DNA damage in human HGC-27 cells assessed as upregulation of p53 phoshorylation incubated for 48 hrs by Western blotting analysis; format: functional, cell-based
HGC-27 [31] = experiment: Induction of DNA damage in human HGC-27 cells assessed as upregulation of p53 expression incubated for 48 hrs by Western blotting analysis; format: functional, cell-based
HGC-27 [32] = experiment: Induction of DNA damage in human HGC-27 cells assessed as upregulation of gamma-H2AX expression incubated for 48 hrs by Western blotting analysis; format: functional, cell-based
HGC-27 [33] = experiment: Induction of apoptosis in human HGC-27 cells assessed as downregulation of Bcl-2 expression incubated for 48 hrs by Western blotting analysis; format: functional, cell-based
L02 = experiment: Antiproliferative activity against human L02 cells assessed as inhibition of cell growth incubated for 48 hrs by MTT assay; format: functional, cell-based; details: L02, 48 h
HGC-27 [34] = experiment: Induction of apoptosis in human HGC-27 cells assessed as late apoptotic cells at 5 uM incubated for 24 hrs by annexin V-FITC/PI satining based flow cytometry (reference value: 0.32 %); format: functional
HGC-27 [35] = experiment: Induction of apoptosis in human HGC-27 cells assessed as upregulation of cleaved caspase-3 expression incubated for 48 hrs by Western blotting analysis; format: functional, cell-based
HGC-27 [36] = experiment: Induction of apoptosis in human HGC-27 cells assessed as late apoptotic cells at 2.5 uM incubated for 24 hrs by annexin V-FITC/PI satining based flow cytometry (reference value: 0.32 %); format: functional
HGC-27 [37] = experiment: Induction of apoptosis in human HGC-27 cells assessed as downregulation of PARP expression incubated for 48 hrs by Western blotting analysis; format: functional, cell-based

Structure (SMILES): CCc1c2c(nc3ccc(OC(=O)N4CCC(N5CCCCC5)CC4)cc13)-c1cc3c(c(=O)n1C2)COC(=O)[C@]3(O)CC [IRINOTECAN]
- IC50 (A549): 6.13 µM
- IC50 (HeLa): 13.2 µM
- IC50 (HepG2): 10.8 µM
- Activity [1]: Toxic
- Activity [2]: Toxic
- Activity [3]: Toxic
- Activity [4]: Toxic
- inhibition in vivo at 40 mg/kg (HGC-27 [5]): 87%
- IC50 (HGC-27 [6]): 7.01 µM

Structure (SMILES): O=C(OCC1c2ccccc2-c2ccccc21)N1C[C@@H]2CCCN3CCC[C@@H]([C@H]23)[C@H]1CCCc1nc2cc(Br)c(Br)cc2[nH]1
- Activity (HGC-27 [7]): 66%
- viability at 1.25 µM (HGC-27 [8]): 80.7%
- viability at 2.5 µM (HGC-27 [9]): 51.7%
- Activity (HGC-27 [10]): 74%
- Activity (HGC-27 [11]): 76%
- Activity (HGC-27 [12]): 1.42%
- Activity (HGC-27 [13]): 40.6%
- IC50 (A549): 9.48 µM
- inhibition (HGC-27 [14]): Dose-Dependent Effect
- IC50 (HeLa): 7.21 µM
- Activity (HGC-27 [15]): 72.5%
- Activity (HGC-27 [16]): 43.1%
- IC50 (HepG2): 3.8 µM
- inhibition (HGC-27 [17]): Dose-Dependent Effect
- Activity (HGC-27 [18]): 0.6%
- Activity (HGC-27 [19]): Dose-Dependent Effect
- Activity (HGC-27 [20]): 70%
- IC50 [21]: 0.09 µM
- viability at 5 µM (HGC-27 [22]): 18.1%
- Activity (HGC-27 [23]): 15.5%
- Activity (HGC-27 [24]): Dose-Dependent Effect
- Activity (HGC-27 [25]): 0.37%
- Activity (HGC-27 [26]): Dose-Dependent Effect
- Activity (HGC-27 [27]): 1.79%
- Activity (HGC-27 [28]): 17.2%
- inhibition [29]: Dose-Dependent Effect
- Activity (HGC-27 [30]): Dose-Dependent Effect
- Activity (HGC-27 [31]): Dose-Dependent Effect
- Activity (HGC-27 [32]): Dose-Dependent Effect
- Activity (HGC-27 [33]): Dose-Dependent Effect
- Activity [4]: Toxic
- inhibition in vivo at 40 mg/kg (HGC-27 [5]): 75.4%
- IC50 (L02): > 64 µM
- IC50 (HGC-27 [6]; read-out: IC50): 2.49 µM
- Activity (HGC-27 [34]): 8.01%
- Activity (HGC-27 [35]): Dose-Dependent Effect
- Activity (HGC-27 [36]): 7%
- Activity (HGC-27 [37]): Dose-Dependent Effect
